This note sets out measurements from paper PMC6349869, “The palladacycle complex AJ-5 induces apoptotic cell death while reducing autophagic flux in rhabdomyosarcoma cells” (Cell Death Discovery, 2019).

Common to all, as to format: cell-based, human
In one experiment the test system is SW872 cells. Kind of experiment: MTT cell viability assay, SW872 liposarcoma. The following applies: 48 h. (Formazan colour is commonly taken as a measure of viable cells.)
For another experiment, the system named is aRMS and eRMS cells. Kind of experiment: MTT cell viability assay, RMS cell lines (summary statements). The conditions noted are these: alveolar and embryonal RMS cells. Here is the method: RH30 human aRMS cells (kindly provided by Associate Professor Judith Davie, Southern Illinois University), AX-OH-1 human aRMS and FL-OH-1 human eRMS cells (kindly provided by Professor Stefan Bath, University of Cape Town) were cultured in Roswell Park Memorial Institute Medium (RPMI)-1640 (Sigma Aldrich, Missouri, USA). […] Cell morphology was monitored using an Olympus CKX41 inverted microscope (MSAC Ltd, UK) and imaged with an EVOS™ XL AMEX1000 Core Imaging System (Thermo Fisher Scientific, Massachusetts, USA).
Cells were seeded in 96-well plates and treated the next day with a range of AJ-5 concentrations (0.1–1.0 μM) or vehicle ([…]) for 48 h. Cell viability was measured using the 3-(4,5-dimethylthiazol-2-yl)-2,5-diphenyl-trazolium bromide (MTT) assay (11465007001; Sigma Aldrich) according to the manufacturer’s instructions. Mean cell viability was calculated as a percentage of the mean vehicle control. At least three independent experiments in quadruplicate were performed from which the half maximal inhibitory concentration (IC50) was determined using GraphPad Prism version 6.0 (GraphPad Software, California, USA). The selectivity index (SI) was determined by dividing the IC50 of a normal cell line by the IC50 of a cancer cell line.

Experiment [1] concerns LC3II in RH30 and RD cells. Kind of experiment: LC3II western blotting. The conditions noted are these: 0.1 µM or IC50, 24 and 48 h. The procedure:
Cells were lysed at 4 °C in whole-cell lysis buffer (0.125 M Tris-HCl pH 6.8, 4% SDS, 0.2% glycerol, 0.1% β-mercaptoethanol and a pinch of bromophenol blue) and boiled for 10 min. Proteins were resolved by SDS-PAGE (6–15% gels) and transferred to Hybond ECL membranes (Amersham, UK). The membranes were incubated with primary antibodies: rabbit polyclonal antibodies to phospho-histone H2A.X (Ser139) (#2577), phospho-chk2 (Thr68) (#221), phospho-p38 MAPK (Thr180/Tyr182) (#9211), cleaved caspase-3 (Asp175) (#9661), PARP (#9542), caspase-9 (#9502), LC3B (#2775), p38 MAPK (#9212), rabbit monoclonal antibody to cleaved caspase-7 (Asp198) (D6H1) (#8438), mouse monoclonal antibodies to phospho-ATM (Ser1981) (D6H9) (#5883), Cyclin B1 (V152) (#4135), Caspase-8 (1C12) (#9746), SQSTM1/p62 (D5L7G) (#88588) from Cell Signaling Technology (Massachusetts, USA); mouse monoclonal antibody to p53 (DO-1) (sc-126), rabbit polyclonal antibodies to p21 (C-19) (sc-397), cyclin A (H-432) (sc-751), cyclin B1 (H-433)(sc-752), PARP-1 (H-250) (sc-7150) from Santa Cruz Biotechnology (Texas, USA); rabbit polyclonal antibody to p38 MAP kinase (M0800) from Sigma Aldrich. […] Densitometry readings were obtained using ImageJ v1.50i[58] and protein expression levels were represented as a ratio of protein of interest/p38 loading control normalized to the vehicletreated control sample where appropriate. […]
(In general: A western blot detects proteins with antibodies after separation by electrophoresis.)

In experiment [2] the test system is SW1353, SW872, SW982, HT1080 and MG-63 cells. Kind of experiment: Clonogenic assay, sarcoma subtypes. The conditions noted are these: ¼ IC50, 24 h, all sarcoma subtypes. The procedure: Cells were seeded in 6-well plates and treated the following day with IC50, ½ IC50, ¼ IC50 AJ-5 and vehicle. After 24 h, 800–4000 cells were seeded in 35 mm dishes in drug-free medium. Formation of colonies were monitored and after 7–21 days cells were fixed with 3:1 methanol:acetic acid and stained with 0.5% crystal violet (Sigma Aldrich) in 100% methanol. Colonies were imaged and percentage colony area was determined using ImageJ v1.50i[58] and the plugin ColonyArea[59]. Colony area was determined for each drug concentration and expressed as a percentage of vehicletreated control.
Fig. S2 AJ-5 is cytotoxic in a range of sarcoma subtypes. […] Graphs show mean cell viability as a percentage of vehicle control ± SEM for each concentration of AJ-5 determined from three independent experiments performed in quadruplicate. […] (B) Selectivity indices (SIs) were determined for each cell line by dividing the IC50 of each non-malignant cell line (Fig. 1C) including normal fibroblast cell lines (FG0 and DMB) and mesenchymal stem cell line (A10021501) by the IC50 of each sarcoma cell line. […] Colonies were stained with crystal violet and images from three independent repeats were quantified using the ImageJ plugin ColonyArea. […] Data was analysed using GraphPad Prism 6.0 and a parametric unpaired t-test was performed *p<0.05, **p<0.01, ***p<0.001.

In general, IC50 refers to the point on the concentration scale where inhibition reaches its midpoint. For `CC(C)c1cccc(C(C)C)c1[N+]1=Cc2cccc[c]2[Pd-2]1([Cl])[P+](CC[P+](c1ccccc1)(c1ccccc1)[Pd-2]1([Cl])[c]2ccccc2C=[N+]1c1c(C(C)C)cccc1C(C)C)(c1ccccc1)c1ccccc1` (stereo not shown) [AJ-5], the IC50 with SW872 cells is less than 300 nM; in the experiment on aRMS and eRMS cells, not above 200 nM. The LC3II protein level result in experiment [1] was “induced in both RMS cell lines in a time- and dose-dependent manner”. In experiment [2], the “Ability of sarcoma cells to survive and proliferate (colony area)” value was “significantly reduced”.
